What was measured:
Carboplatin = compound: C1CC(C1)(C(=O)[O-])C(=O)[O-].N.N.[Pt+2] [Carboplatin]; conditions: max 10 µM
Outline: (§1)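 Cancer cell lines in 1536-well plates (7.5 μl DMEM/F12 or RPMI, 10% FBS) were held 24 hours at 37°C and 5% CO2 and then dosed for 72 hours at a final DMSO of typically 0.2%. Viability was taken from CellTiter-Glo 2.0 luminescence, scaled between blank-well and DMSO-well means. Curves were fitted as two-parameter logistic models with a non-linear mixed effects model, from which the single-agent IC50 was taken.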

AZD5363 = compound: C1CN(CCC1(C(=O)N[C@@H](CCO)C2=CC=C(C=C2)Cl)N)C3=NC=NC4=C3C=CN4 [AZD5363]; conditions: max 10 µM
Outline: as §1

AZD1775 = compound: C=CCn1c(=O)c2cnc(Nc3ccc(N4CCN(C)CC4)cc3)nc2n1-c1cccc(C(C)(C)O)n1 [AZD1775]; conditions: max 3 µM
Outline: as §1

Trametinib = compound: CC(=O)Nc1cccc(-n2c(=O)n(C3CC3)c(=O)c3c(Nc4ccc(I)cc4F)n(C)c(=O)c(C)c32)c1 [Trametinib]; conditions: max 1 µM
Outline: as §1

Paclitaxel = compound: CC(=O)O[C@H]1C(=O)[C@@]2(C)[C@H]([C@H](OC(=O)c3ccccc3)[C@]3(O)C[C@H](OC(=O)[C@H](O)[C@@H](NC(=O)c4ccccc4)c4ccccc4)C(C)=C1C3(C)C)[C@]1(OC(C)=O)CO[C@@H]1C[C@@H]2O [Paclitaxel]; conditions: max 3 µM
Outline: as §1

Palbociclib = compound: CC(=O)c1c(C)c2cnc(Nc3ccc(N4CCNCC4)cn3)nc2n(C2CCCC2)c1=O [Palbociclib]; conditions: max 10 µM
Outline: as §1

AZD1390 = compound: CC(C)n1c(=O)n(C)c2cnc3cc(F)c(-c4ccc(OCCCN5CCCCC5)nc4)cc3c21 [AZD1390]; conditions: max 0.3 µM
Outline: as §1

Venetoclax = compound: CC1(C)CCC(CN2CCN(c3ccc(C(=O)NS(=O)(=O)c4ccc(NCC5CCOCC5)c([N+](=O)[O-])c4)c(Oc4cnc5[nH]ccc5c4)c3)CC2)=C(c2ccc(Cl)cc2)C1 [Venetoclax]; conditions: max 1 µM
Outline: as §1

Dasatinib = compound: CC1=C(C(=CC=C1)Cl)NC(=O)C2=CN=C(S2)NC3=CC(=NC(=N3)C)N4CCN(CC4)CCO [Dasatinib]; conditions: max 2 µM
Outline: as §1

SG3199 = compound: CC1=CN2[C@@H](C1)C=NC3=CC(=C(C=C3C2=O)OC)OCCCCCOC4=C(C=C5C(=C4)N=C[C@@H]6CC(=CN6C5=O)C)OC [SG3199]; conditions: max 0.001 µM
Outline: as §1

AZD2811 = compound: CCN(CCO)CCCOc1ccc2c(Nc3cc(CC(=O)Nc4cccc(F)c4)[nH]n3)ncnc2c1 [AZD2811]; conditions: max 1 µM
Outline: as §1

SN-38 = compound: CCc1c2c(nc3ccc(O)cc13)-c1cc3c(c(=O)n1C2)COC(=O)[C@]3(O)CC [SN-38]; conditions: max 0.3 µM
Outline: as §1

AZD0156 = compound: CN(C)CCCOc1ccc(-c2ccc3ncc4c(c3c2)n(C2CCOCC2)c(=O)n4C)cn1 [AZD0156]; conditions: max 3 µM
Outline: as §1

AZD4320 = compound: CN(CC[C@H](CSC1=CC=CC=C1)NC2=C(C=C(C=C2)S(=O)(=O)NC(=O)C3=CC=C(C=C3)N4CCC(CC4)[C@H](C5=CC=CC=C5C6=CC=C(C=C6)Cl)O)S(=O)(=O)C(F)(F)F)CCO [AZD4320]; conditions: max 1 µM
Outline: as §1

Alisertib = compound: COc1cc(Nc2ncc3c(n2)-c2ccc(Cl)cc2C(c2c(F)cccc2OC)=NC3)ccc1C(=O)O [Alisertib]; conditions: max 10 µM
Outline: as §1

Etoposide = compound: COc1cc([C@@H]2c3cc4c(cc3[C@@H](O[C@@H]3O[C@@H]5CO[C@@H](C)O[C@H]5[C@H](O)[C@H]3O)[C@H]3COC(=O)[C@H]23)OCO4)cc(OC)c1O [Etoposide]; conditions: max 10 µM
Outline: as §1

Gefitinib = compound: COc1cc2ncnc(Nc3ccc(F)c(Cl)c3)c2cc1OCCCN1CCOCC1 [Gefitinib]; conditions: max 10 µM
Outline: as §1

Prexasertib = compound: COc1cccc(OCCCN)c1-c1cc(Nc2cnc(C#N)cn2)n[nH]1 [Prexasertib]; conditions: max 1 µM
Outline: as §1

Doxorubicin = compound: COc1cccc2c1C(=O)c1c(O)c3c(c(O)c1C2=O)C[C@@](O)(C(=O)CO)C[C@@H]3O[C@H]1C[C@H](N)[C@H](O)[C@H](C)O1 [Doxorubicin]; conditions: max 1 µM
Outline: as §1

AZD5153 = compound: COc1nnc2ccc(N3CCC(c4ccc(OCCN5CCN(C)C(=O)[C@H]5C)cc4)CC3)nn12 [AZD5153]; conditions: max 1 µM
Outline: as §1

Lapatinib = compound: CS(=O)(=O)CCNCc1ccc(-c2ccc3ncnc(Nc4ccc(OCc5cccc(F)c5)c(Cl)c4)c3c2)o1 [Lapatinib]; conditions: max 10 µM
Outline: as §1

AZD8186 = compound: C[C@@H](Nc1cc(F)cc(F)c1)c1cc(C(=O)N(C)C)cc2c(=O)cc(N3CCOCC3)oc12 [AZD8186]; conditions: max 10 µM
Outline: as §1

Crizotinib = compound: C[C@@H](Oc1cc(-c2cnn(C3CCNCC3)c2)cnc1N)c1c(Cl)ccc(F)c1Cl [Crizotinib]; conditions: max 10 µM
Outline: as §1

Savolitinib = compound: C[C@@H](c1ccc2nccn2c1)n1nnc2ncc(-c3cnn(C)c3)nc21 [Savolitinib]; conditions: max 1 µM
Outline: as §1

AZD6738 = compound: C[C@@H]1COCCN1C2=NC(=NC(=C2)C3(CC3)[S@](=N)(=O)C)C4=C5C=CNC5=NC=C4 [AZD6738]; conditions: max 10 µM
Outline: as §1

AZD5991 = compound: Cc1c2c(nn1C)CSCc1cc(n(C)n1)CSc1cc(c3ccccc3c1)OCCCc1c(C(=O)O)n(C)c3c-2c(Cl)ccc13 [AZD5991]; conditions: max 1 µM
Outline: as §1

AZD7648 = compound: Cc1cc2ncnn2cc1Nc1ncc2c(n1)n(C1CCOCC1)c(=O)n2C [AZD7648]; conditions: max 10 µM
Outline: as §1

Taselisib = compound: Cc1nc(-c2cn3c(n2)-c2ccc(-c4cnn(C(C)(C)C(N)=O)c4)cc2OCC3)n(C(C)C)n1 [Taselisib]; conditions: max 10 µM
Outline: as §1

Selumetinib = compound: Cn1cnc2c(F)c(Nc3ccc(Br)cc3Cl)c(C(=O)NOCCO)cc21 [Selumetinib]; conditions: max 10 µM
Outline: as §1

SRA737 = compound: N#Cc1cnc(Nc2cc(NC[C@H]3CNCCO3)c(C(F)(F)F)cn2)cn1 [SRA737]; conditions: max 10 µM
Outline: as §1

MK-2206 = compound: NC1(c2ccc(-c3nc4ccn5c(=O)[nH]nc5c4cc3-c3ccccc3)cc2)CCC1 [MK-2206]; conditions: max 10 µM
Outline: as §1

Gemcitabine = compound: Nc1ccn([C@@H]2O[C@H](CO)[C@@H](O)C2(F)F)c(=O)n1 [Gemcitabine]; conditions: max 0.3 µM
Outline: as §1

[1] = compound: O=C(Nc1ccc2[nH]nc(-c3ccncc3)c2c1)[C@@H]1CCN(CC(=O)N2CCN(c3ccc(-c4ncccn4)cc3)CC2)C1; conditions: max 5 µM
Outline: as §1

Olaparib = compound: O=C(c1cc(Cc2n[nH]c(=O)c3ccccc23)ccc1F)N1CCN(C(=O)C2CC2)CC1 [Olaparib]; conditions: max 10 µM
Outline: as §1

5-Fluorouracil = compound: O=c1[nH]cc(F)c(=O)[nH]1 [5-Fluorouracil]; conditions: max 20 µM
Outline: as §1

| Cell Line | IC50, cell viability 72 h (Carboplatin) [nM] | IC50, cell viability 72 h (AZD5363) [nM] | IC50, cell viability 72 h (AZD1775) [nM] | IC50, cell viability 72 h (Trametinib) [nM] | IC50, cell viability 72 h (Paclitaxel) [nM] | IC50, cell viability 72 h (Palbociclib) [nM] | IC50, cell viability 72 h (AZD1390) [nM] | IC50, cell viability 72 h (Venetoclax) [nM] | IC50, cell viability 72 h (Dasatinib) [nM] | IC50, cell viability 72 h (SG3199) [nM] | IC50, cell viability 72 h (AZD2811) [nM] | IC50, cell viability 72 h (SN-38) [nM] | IC50, cell viability 72 h (AZD0156) [nM] | IC50, cell viability 72 h (AZD4320) [nM] | IC50, cell viability 72 h (Alisertib) [nM] | IC50, cell viability 72 h (Etoposide) [nM] | IC50, cell viability 72 h (Gefitinib) [nM] | IC50, cell viability 72 h (Prexasertib) [nM] | IC50, cell viability 72 h (Doxorubicin) [nM] | IC50, cell viability 72 h (AZD5153) [nM] | IC50, cell viability 72 h (Lapatinib) [nM] | IC50, cell viability 72 h (AZD8186) [nM] | IC50, cell viability 72 h (Crizotinib) [nM] | IC50, cell viability 72 h (Savolitinib) [nM] | IC50, cell viability 72 h (AZD6738) [nM] | IC50, cell viability 72 h (AZD5991) [nM] | IC50, cell viability 72 h (AZD7648) [nM] | IC50, cell viability 72 h (Taselisib) [nM] | IC50, cell viability 72 h (Selumetinib) [nM] | IC50, cell viability 72 h (SRA737) [nM] | IC50, cell viability 72 h (MK-2206) [nM] | IC50, cell viability 72 h (Gemcitabine) [nM] | IC50, cell viability 72 h [1] [nM] | IC50, cell viability 72 h (Olaparib) [nM] | IC50, cell viability 72 h (5-Fluorouracil) [nM] |
| --- | --- | --- | --- | --- | --- | --- | --- | --- | --- | --- | --- | --- | --- | --- | --- | --- | --- | --- | --- | --- | --- | --- | --- | --- | --- | --- | --- | --- | --- | --- | --- | --- | --- | --- | --- |
| ME-1 (Acute Myeloid Leukemia) | > 10000 | > 10000 | 1260 | > 1000 | > 3000 | > 10000 | > 300 | 7.88 | > 2000 | > 1 | > 1000 | > 300 | > 3000 | 22.7 | > 10000 | > 10000 | > 10000 | 315 | > 1000 | > 1000 | > 10000 | > 10000 | > 10000 | > 1000 | > 10000 | 694 | > 10000 | > 10000 | > 10000 | > 10000 | > 10000 | > 300 | > 5000 | > 10000 | > 20000 |
| UM-UC-3 (Bladder Carcinoma) | > 10000 | > 10000 | > 3000 | > 1000 | 66 | > 10000 | > 300 | > 1000 | > 2000 | > 1 | > 1000 | 15.3 | > 3000 | > 1000 | > 10000 | 3450 | > 10000 | 799 | > 1000 | > 1000 | > 10000 | > 10000 | > 10000 | > 1000 | > 10000 | > 1000 | > 10000 | 8320 | > 10000 | > 10000 | > 10000 | 58.2 | > 5000 | > 10000 | > 20000 |
| DoTc2-4510 (Cervical Carcinoma) | > 10000 | > 10000 | 2900 | > 1000 | 456 | > 10000 | > 300 | > 1000 | > 2000 | > 1 | > 1000 | 9.33 | > 3000 | > 1000 | > 10000 | > 10000 | > 10000 | 59.5 | 518 | > 1000 | > 10000 | > 10000 | > 10000 | > 1000 | > 10000 | > 1000 | > 10000 | 4860 | > 10000 | > 10000 | > 10000 | > 300 | > 5000 | > 10000 | > 20000 |
| NCI-H82 (Small Cell Lung Carcinoma) | > 10000 | 1360 | 622 | > 1000 | 5.46 | > 10000 | > 300 | > 1000 | > 2000 | > 1 | 844 | 22.7 | > 3000 | > 1000 | 1090 | 2450 | > 10000 | 18.2 | 254 | 931 | > 10000 | > 10000 | 3570 | > 1000 | 2110 | 227 | > 10000 | > 10000 | > 10000 | 5800 | 2690 | 32.8 | > 5000 | > 10000 | 11800 |
| TE-15 (Esophageal Squamous Cell Carcinoma) | > 10000 | > 10000 | 1840 | 693 | 9.03 | > 10000 | > 300 | > 1000 | 136 | > 1 | > 1000 | 9.74 | > 3000 | > 1000 | > 10000 | 4550 | – | 40.6 | 884 | 658 | 712 | > 10000 | > 10000 | > 1000 | 4290 | > 1000 | > 10000 | 2230 | 8210 | 4130 | > 10000 | 25.5 | 3950 | > 10000 | > 20000 |
